Results reported in patent US20060193776A1, “Screening methods employing zebrafish and the blood brain barrier” (priority 2004, published 2006).
Each block holds one compound with its values, some of them ahead of it.

Legend:
[1] = tested on: blood brain barrier of zebrafish larvae; assay: Dye exclusion experiments: dye injected into pericardial region, fluorescence intensity in the brain quantified
Method: Evans Blue dye (961 Da) was used to investigate the presence of BBB in zebrafish larvae. […] In rodents, Evans Blue leakage is observed following brain trauma.
1) 2% Evans Blue in 0.9% saline was injected into pericardial sac of larvae from 2 days post-fertilisation (d.p.f.) to 1 month old. 0.9% saline was injected as a control.
2) The larvae were left to develop for 6 hours to allow the dye to penetrate from bloodstream into tissues.
3) The larvae were viewed under fluorescent dissecting scope (TRITC filter) to ensure that dye was present in blood vessels.
5) They were embedded in O.C.T. (Optimal Cutting Temperature compound) and 10 μm frozen sections were taken in parasaggital plane.
6) Midline sections were viewed on fluorescent microscope (TRITC filter) at ×40 magnification. Images were taken of Evans Blue injected and saline injected samples.
7) Fluorescent intensity was measured in 3 regions of control and Evans Blue injected samples using AnalySis software. Mean fluorescent intensity was calculated for each age group.
Injection stocks of 2% evans blue in 0.9% saline and a 10% sodium fluorescein in 0.9% saline were prepared and stored at 4° C. Larvae were anaesthetised by immersion in 0.2 mg/ml 3-amino benzoic acid (MS222) prior to being immobilised and oriented in 3% methyl cellulose in embryo medium in a lateral position such that the heart was accessible. Larvae and juveniles from 2 days post-fertilisation (d.p.f.) to 30 d.p.f. were injected into the pericardial region with 0.5 to 2 nl of dye or saline control, depending on age, using standard zebrafish egg microinjection apparatus (Westerfield, 1995). Fish were transferred to fresh embryo medium to recover from anaesthesia, then viewed using a fluorescence dissecting microscope at 1 hour intervals to determine the time of uptake of the dye into the circulation and the time at which dye had permeated from the circulation into non-vascular body tissue. Dye and saline injected larvae were anaesthetised at 4 hours and 6 hours after injection and fixed in 4% paraformaldehyde in PBS. 10 larvae per age group and injection treatment were embedded in Sakura Tissue-Tek OCT Compound (Bayer, Newbury, UK) and frozen parasagittal sections were cut at 10 μm thickness.
Sections were visualised without mounting medium by fluorescence microscopy on an Olympus BX51 microscope. Three midline sagittal sections from each larva were identified and images were captured using a ColorView camera (Olympus) and AnalySis software (Soft Imaging System). The fluorescence intensity within the brain was quantified for each midline section of each larva in each treatment group using colour threshold and area measurements in AnalySis. Mean values, standard deviations and T-tests were calculated using Excel software (Microsoft Office).

[2] = rodents; cited from earlier work
[3] = clinical, humans; cited from earlier work
[4] = mammals; cited from earlier work
[5] = tested on: zebrafish; assay: DMSO tolerance of zebrafish; format: in vivo; details: added to the fish water
Excerpt: Zebrafish are also DMSO (dimethyl sulphoxide) tolerant. This is important as DMSO is used as a solvent to dissolve many drugs. The inventors have established that zebrafish can tolerate 1% DMSO. Thus, a candidate drug or other test substance may be dissolved in DMSO and administered to zebrafish by adding to the fish water to give a final concentration of DMSO of at least up to 1%. This is employed in various preferred aspects and embodiments of the present invention.

Compound: Cc1cc(-c2ccc(/N=N/c3ccc4c(S(=O)(=O)O)cc(S(=O)(=O)O)c(N)c4c3O)c(C)c2)ccc1/N=N/c1ccc2c(S(=O)(=O)O)cc(S(=O)(=O)O)c(N)c2c1O [Evans Blue]
fluorescence in the brain ([1]; 3 d.p.f., dye injected into pericardial sac, 6 hours): High level of fluorescence in the brain
brain fluorescence compared with saline injected samples ([1]; 5 d.p.f., dye injected into pericardial sac, 6 hours): no different from saline injected samples
change of fluorescent intensity in the brain with age ([1]; FIG. 2, days post-fertilisation): age dependent decrease
day from which excluded from the brain ([1]; peripheral injection): 5 days
exclusion from the brain [2]: excluded from the brain if the BBB is intact

Compound: Cc1ccc(/C(=C\CN2CCCC2)c2ccccn2)cc1 [triprolidine]
sedating or non-sedating antihistamine [3]: sedating

Compound: O=C(O)COCCN1CCN(C(c2ccccc2)c2ccc(Cl)cc2)CC1 (stereo not drawn) [cetirizine]
sedating or non-sedating antihistamine [3]: non-sedating

Compound: Clc1ccc2c(c1)CCc1cccnc1C2=C1CCNCC1 [desloratadine]
crosses the BBB [4]: does not cross the BBB

age at which fluorescent intensity in the brain decreases sharply (exclusion from the brain) ([1]; zebrafish, in vivo): 8 d.p.f.
Compound: rhodamine 123

Compound: CCOC(=O)N1CCC(=C2c3ccc(Cl)cc3CCc3cccnc32)CC1 [loratadine]
sedating or non-sedating antihistamine [3]: non-sedating

Compound: C[S+](C)[O-] [DMSO, dimethyl sulphoxide]
concentration tolerated by zebrafish [5]: 1%

Compound: O=C([O-])c1ccccc1-c1c2ccc(=O)cc-2oc2cc([O-])ccc12.[Na+].[Na+] [sodium fluorescein]
day from which excluded from the brain ([1]; peripheral injection): 10 days
day until which it permeates into the brain ([1]; peripheral injection): 8 days
age at which fluorescent intensity in the brain decreases sharply (exclusion from the brain) ([1]; peripheral injection, versus saline controls): 10 d.p.f.

Compound: OCCOCCN1CCN(C(c2ccccc2)c2ccc(Cl)cc2)CC1 (stereo not drawn) [hydroxyzine]
sedating or non-sedating antihistamine [3]: sedating
